Molecules are shown by their SMILES.

For this experiment, the target named is T1, Human BCL-XL protein (N-terminal HiBiT tagged BCL-XL expressed in HT1080 cells) (Homo sapiens, UniProt Q07817).
T1 construct: expressed in transfected cells; host or cells: HT-1080 (ATCC CCL-121), stably transduced with lentivirus pLV-UBC-N-HiBiT-BCL-XL-PGK-puro and selected with puromycin
In words: HiBiT Based Degradation Assay. Type of experiment: cell-based. The note with it: 24 hours incubation; for DC50: BCL-XL degradation, HT1080 cells expressing N-HiBiT-BCL-XL, normalized with DMSO control, geometric mean for multiple data points, read-out: EC50 (24 h); for Ymin (24 h): bottom of BCL-XL degradation curve (remaining HiBiT-BCL-XL signal vs DMSO control), HT1080 cells. Put shortly: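 BCL-XL degradation was read as Nano-Glo HiBiT lytic luminescence relative to DMSO after a 24 h compound treatment of HT1080 cells carrying stably integrated N-HiBiT-BCL-XL. EC50 values come from four-parameter logistic curves, with the hook-curve minimum fixed as bottom, and are geometric means where tested repeatedly.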
On the technique in general: The HiBiT peptide binds its large partner to form an active luciferase.

T1 sequence (Q07817 whole entry): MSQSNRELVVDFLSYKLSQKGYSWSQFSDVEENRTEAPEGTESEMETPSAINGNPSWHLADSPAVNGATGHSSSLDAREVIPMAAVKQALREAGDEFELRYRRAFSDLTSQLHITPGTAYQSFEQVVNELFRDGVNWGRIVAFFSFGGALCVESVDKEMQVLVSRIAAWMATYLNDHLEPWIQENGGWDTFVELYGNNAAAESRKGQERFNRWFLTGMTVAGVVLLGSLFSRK

For `Cn1nc(C2CCC(=O)NC2=O)c2ccc(NC(=O)CN3CCC4(CC3)CC(Oc3cccc(-c5ccc(N6CCc7ccnc(C(=O)Nc8nc9ccccc9s8)c7C6)nc5C(=O)O)c3C(F)(F)F)C4)c(F)c21` (stereo not shown) [Compound 214], the DC50 was under 10 nM and the “Ymin (24 h)” value is on record as “B (30% ≤ Ymin < 50%)”.

As for `C[C@H]1C[C@H](CCCOc2cccc(-c3ccc(N4CCc5cccc(C(=O)Nc6nc7ccccc7s6)c5C4)nc3C(=O)O)c2C(F)(F)F)CCN1CC(=O)Nc1ccc2c(C3CCC(=O)NC3=O)nn(C)c2c1` (stereo partly shown) [Compound 215a], the DC50 was in the range of 10 to 100 nM and the “Ymin (24 h)” value is listed as “B (30% ≤ Ymin < 50%)”.

Take `C[C@H]1C[C@@H](CCCOc2cccc(-c3ccc(N4CCc5cccc(C(=O)Nc6nc7ccccc7s6)c5C4)nc3C(=O)O)c2C(F)(F)F)CCN1CC(=O)Nc1ccc2c(C3CCC(=O)NC3=O)nn(C)c2c1` (stereo partly shown) [Compound 215b]: the DC50 was 10 to 100 nM and the “Ymin (24 h)” value is on record as “B (30% ≤ Ymin < 50%)”.

For the molecule `C[C@@H]1C[C@@H](CCCOc2cccc(-c3ccc(N4CCc5cccc(C(=O)Nc6nc7ccccc7s6)c5C4)nc3C(=O)O)c2C(F)(F)F)CCN1CC(=O)Nc1ccc2c(C3CCC(=O)NC3=O)nn(C)c2c1` (stereo partly shown) [Compound 215c], the DC50 was in the range of 10 to 100 nM and the “Ymin (24 h)” value is “B (30% ≤ Ymin < 50%)”.

With `C[C@@H]1CC(CCCOc2cccc(-c3ccc(N4CCc5cccc(C(=O)Nc6nc7ccccc7s6)c5C4)nc3C(=O)O)c2C(F)(F)F)CCN1CC(=O)Nc1ccc2c(C3CCC(=O)NC3=O)nn(C)c2c1` (stereo partly shown) [Compound 215d], the DC50 lay in the range of 10 to 100 nM and the “Ymin (24 h)” value is listed as “B (30% ≤ Ymin < 50%)”.

Take `COc1c(NC(=O)CN2CC[C@@H](CCCOc3cccc(-c4ccc(N5CCc6ccnc(C(=O)Nc7nc8ccccc8s7)c6C5)nc4C(=O)O)c3C)C[C@@H]2C)ccc2c(C3CCC(=O)NC3=O)nn(C)c12` (stereo partly shown) [Compound 216b]: the DC50 was under 10 nM and the “Ymin (24 h)” value was “B (30% ≤ Ymin < 50%)”.

Turning to `Cc1c(OCCC[C@H]2CCN(CC(=O)Nc3ccc4c(C5CCC(=O)NC5=O)nn(C)c4c3)[C@H](C)C2)cccc1-c1ccc(N2CCc3ccnc(C(=O)Nc4nc5ccccc5s4)c3C2)nc1C(=O)O` (stereo partly shown) [Compound 216c], the DC50 lay in the range of 10 to 100 nM and the “Ymin (24 h)” value is on record as “B (30% ≤ Ymin < 50%)”.

Take `Cc1c(OCCC[C@@H]2CCN(CC(=O)Nc3ccc4c(C5CCC(=O)NC5=O)nn(C)c4c3)[C@H](C)C2)cccc1-c1ccc(N2CCc3ccnc(C(=O)Nc4nc5ccccc5s4)c3C2)nc1C(=O)O` (stereo partly drawn) [Compound 216d, 6-(8-(benzo[d]thiazol-2-ylcarbamoyl)-3,4-dihydro-2,7-naphthyridin-2(1H)-yl)-3-(3-(3-((2R,4R)-1-(2-((3-(2,6-dioxopiperidin-3-yl)-1-methyl-1H-indazol-6-yl)amino)-2-oxoethyl)-2-methylpiperidin-4-yl)propoxy)-2-methylphenyl)picolinic acid]: the DC50 is 10 to 100 nM and the “Ymin (24 h)” value is reported as “B (30% ≤ Ymin < 50%)”.

On to `Cc1c(NCCCC2CCN(CC(=O)Nc3ccc4c(C5CCC(=O)NC5=O)nn(C)c4c3)CC2)cccc1-c1ccc(N2CCc3cccc(C(=O)Nc4nc5ccccc5s4)c3C2)nc1C(=O)O` (stereo not shown) [Compound 217], for which the DC50 is under 10 nM and the “Ymin (24 h)” value was “B (30% ≤ Ymin < 50%)”.

For `Cc1cc(NCCCC2CCN(CC(=O)Nc3ccc4c(C5CCC(=O)NC5=O)nn(C)c4c3)CC2)ccc1-c1ccc(N2CCc3cccc(C(=O)Nc4nc5ccccc5s4)c3C2)nc1C(=O)O` (stereo not shown) [Compound 218], the DC50 is under 10 nM and the “Ymin (24 h)” value was “A (Ymin < 30%)”.

For the molecule `Cc1cc(OCCC[C@@H]2CCN(CC(=O)Nc3ccc4c(C5CCC(=O)NC5=O)nn(C)c4c3)[C@@H](C)C2)ccc1-c1ccc(N2CCc3ccnc(C(=O)Nc4nc5ccccc5s4)c3C2)nc1C(=O)O` (stereo partly shown) [Compound 219a], the DC50 is under 10 nM and the “Ymin (24 h)” value is listed as “A (Ymin < 30%)”.

For the origin of these results see patent publication US20260216170A1, “TETRAHYDROISOQUINOLINE HETEROBIFUNCTIONAL BCL-XL DEGRADERS” (Treeline Biosciences, Inc., priority 2023, published 2026).
